Results taken from patent US11077128B2, “Selective inhibitors of Alpha2-containing isoforms of Na,K-ATPase and use thereof for reduction of intraocular pressure” (Yeda Research and Development Co. Ltd., priority 2015, dated 2021).

Key:
[1] = biological target: human Na,K-ATPase α2β1FXYD1 (Homo sapiens, UniProt P50993); assay: biochemical; assay type: biochemical
[2] = system: human Na,K-ATPase α2β3FXYD1; assay: biochemical; assay type: biochemical

| Compound | Selectivity Ki ratio α1β1/α2β1 [1] | Selectivity Ki ratio α1β1/α2β3 [2] |
| --- | --- | --- |
| CC1CN(Cc2ccccc2)CCC(O[C@@H]2C(C)O[C@@H](OC3C(C)OC(O[C@H]4CC[C@@]5(C)C(CCC6C5CC(O)[C@]5(C)[C@@H](C7=CC(=O)OC7)CC[C@]65O)C4)C[C@@H]3O)C[C@@H]2O)O1 (stereo in doubt) [DBz, 4-((3S,5R,8R,9S,10S,12R,13S,14S,17R)-3-(((2S,4S,5R,6R)-5-(((2S,4S,5S,6R)-5-((4-benzyl-2-methyl-1,4-oxazepan-7-yl)oxy)-4-hydroxy-6-methyltetrahydro-2H-pyran-2-yl)oxy)-4-hydroxy-6-methyltetrahydro-2H-pyran-2-yl)oxy)-12,14-dihydroxy-10,13-dimethylhexadecahydro-1H-cyclopenta[a]phenanthren-17-yl)furan-2(5H)-one] | 5.7 | 10-12 |
| CC1CN(CCS(N)(=O)=O)CCC(O[C@@H]2C(C)O[C@@H](OC3C(C)OC(O[C@H]4CC[C@@]5(C)C(CCC6C5CC(O)[C@]5(C)[C@@H](C7=CC(=O)OC7)CC[C@]65O)C4)C[C@@H]3O)C[C@@H]2O)O1 (stereo in doubt) [DESA, 2-(7-(((2R,3S,4S,6S)-6-(((2R,3R,4S,6S)-6-(((3S,5R,8R,9S,10S,12R,13S,14S,17R)-12,14-dihydroxy-10,13-dimethyl-17-(5-oxo-2,5-dihydrofuran-3-yl)hexadecahydro-1H-cyclopenta[a]phenanthren-3-yl)oxy)-4-hydroxy-2-methyltetrahydro-2H-pyran-3-yl)oxy)-4-hydroxy-2-methyltetrahydro-2H-pyran-3-yl)oxy)-2-methyl-1,4-oxazepan-4-yl)ethanesulfonamide] | 7.7 | 15 |
| CC1CN(CCS(C)(=O)=O)CCC(O[C@@H]2C(C)O[C@@H](OC3C(C)OC(O[C@H]4CC[C@@]5(C)C(CCC6C5CC(O)[C@]5(C)[C@@H](C7=CC(=O)OC7)CC[C@]65O)C4)C[C@@H]3O)C[C@@H]2O)O1 (stereo in doubt) [DESM, 4-((3S,5R,8R,9S,10S,12R,13S,14S,17R)-12,14-dihydroxy-3-(((2S,4S,5R,6R)-4-hydroxy-5-(((2S,4S,5S,6R)-4-hydroxy-6-methyl-5-((2-methyl-4-(2-(methylsulfonyl)ethyl)-1,4-oxazepan-7-yl)oxy)tetrahydro-2H-pyran-2-yl)oxy)-6-methyltetrahydro-2H-pyran-2-yl)oxy)-10,13-dimethylhexadecahydro-1H-cyclopenta[a]phenanthren-17-yl)furan-2(5H)-one] | 9.4 |  |
| CC1CN(CCC2CC2)CCC(O[C@@H]2C(C)O[C@@H](OC3C(C)OC(O[C@H]4CC[C@@]5(C)C(CCC6C5CC(O)[C@]5(C)[C@@H](C7=CC(=O)OC7)CC[C@]65O)C4)C[C@@H]3O)C[C@@H]2O)O1 (stereo in doubt) [DEcP, 4-((3S,5R,8R,9S,10S,12R,13S,14S,17R)-3-(((2S,4S,5R,6R)-5-(((2S,4S,5S,6R)-5-((4-(2-cyclopropylethyl)-2-methyl-1,4-oxazepan-7-yl)oxy)-4-hydroxy-6-methyltetrahydro-2H-pyran-2-yl)oxy)-4-hydroxy-6-methyltetrahydro-2H-pyran-2-yl)oxy)-12,14-dihydroxy-10,13-dimethylhexadecahydro-1H-cyclopenta[a]phenanthren-17-yl)furan-2(5H)-one] |  | 10-12 |
| CC1CN(CC2CC(C)(C)C2)CCC(O[C@@H]2C(C)O[C@@H](OC3C(C)OC(O[C@H]4CC[C@@]5(C)C(CCC6C5CC(O)[C@]5(C)[C@@H](C7=CC(=O)OC7)CC[C@]65O)C4)C[C@@H]3O)C[C@@H]2O)O1 (stereo in doubt) [DMDMcB, 4-((3S,5R,8R,9S,10S,12R,13S,14S,17R)-3-(((2S,4S,5R,6R)-5-(((2S,4S,5 S,6R)-5-((4-((3,3-dimethylcyclobutyl)methyl)-2-methyl-1,4-oxazepan-7-yl)oxy)-4-hydroxy-6-methyltetrahydro-2H-pyran-2-yl)oxy)-4-hydroxy-6-methyltetrahydro-2H-pyran-2-yl)oxy)-12,14-dihydroxy-10,13-dimethylhexadecahydro-1H-cyclopenta[a]phenanthren-17-yl)furan-2(5H)-one] |  | 10-12 |
| CC1CN(CS(C)(=O)=O)CCC(O[C@@H]2C(C)O[C@@H](OC3C(C)OC(O[C@H]4CC[C@@]5(C)C(CCC6C5CC(O)[C@]5(C)[C@@H](C7=CC(=O)OC7)CC[C@]65O)C4)C[C@@H]3O)C[C@@H]2O)O1 (stereo in doubt) [DMSM, 4-((3S,5R,8R,9S,10S,12R,13S,14S,17R)-12,14-dihydroxy-3-(((2S,4S,5R,6R)-4-hydroxy-5-(((2S,4S,5S,6R)-4-hydroxy-6-methyl-5-((2-methyl-4-((methylsulfonyl)methyl)-1,4-oxazepan-7-yl)oxy)tetrahydro-2H-pyran-2-yl)oxy)-6-methyltetrahydro-2H-pyran-2-yl)oxy)-10,13-dimethylhexadecahydro-1H-cyclopenta[a]phenanthren-17-yl)furan-2(5H)-one] | 6.9 |  |
| CC1CN(C2CCCCC2)CCC(O[C@@H]2C(C)O[C@@H](OC3C(C)OC(O[C@H]4CC[C@@]5(C)C(CCC6C5CC(O)[C@]5(C)[C@@H](C7=CC(=O)OC7)CC[C@]65O)C4)C[C@@H]3O)C[C@@H]2O)O1 (stereo in doubt) [DcH, 4-((3S,5R,8R,9S,10S,12R,13S,14S,17R)-3-(((2S,4S,5R,6R)-5-(((2S,4S,5S,6R)-5-((4-cyclohexyl-2-methyl-1,4-oxazepan-7-yl)oxy)-4-hydroxy-6-methyltetrahydro-2H-pyran-2-yl)oxy)-4-hydroxy-6-methyltetrahydro-2H-pyran-2-yl)oxy)-12,14-dihydroxy-10,13-dimethylhexadecahydro-1H-cyclopenta[a]phenanthren-17-yl)furan-2(5H)-one] |  | 10-12 |
| CC1CN(C2CC2)CCC(O[C@@H]2C(C)O[C@@H](O[C@@H]3C(C)O[C@@H](O[C@H]4CC[C@@]5(C)C(CCC6C5CC(O)[C@]5(C)[C@@H](C7=CC(=O)OC7)CC[C@]65O)C4)C[C@@H]3O)C[C@@H]2O)O1 (stereo in doubt) [DcP, 4-((3S,5R,8R,9S,10S,12R,13S,14S,17R)-3-(((2R,4S,5S,6R)-5-(((2S,4S,5S,6R)-5-((4-cyclopropyl-2-methyl-1,4-oxazepan-7-yl)oxy)-4-hydroxy-6-methyltetrahydro-2H-pyran-2-yl)oxy)-4-hydroxy-6-methyltetrahydro-2H-pyran-2-yl)oxy)-12,14-dihydroxy-10,13-dimethylhexadecahydro-1H-cyclopenta[a]phenanthren-17-yl)furan-2(5H)-one] | 7.5 |  |
| CC1CN(C2CCCC2)CCC(O[C@@H]2C(C)O[C@@H](OC3C(C)OC(O[C@H]4CC[C@@]5(C)C(CCC6C5CC(O)[C@]5(C)[C@@H](C7=CC(=O)OC7)CC[C@]65O)C4)C[C@@H]3O)C[C@@H]2O)O1 (stereo in doubt) [DcPe, 4-((3S,5R,8R,9S,10S,12R,13S,14S,17R)-3-(((2S,4S,5R,6R)-5-(((2S,4S,5S,6R)-5-((4-cyclopentyl-2-methyl-1,4-oxazepan-7-yl)oxy)-4-hydroxy-6-methyltetrahydro-2H-pyran-2-yl)oxy)-4-hydroxy-6-methyltetrahydro-2H-pyran-2-yl)oxy)-12,14-dihydroxy-10,13-dimethylhexadecahydro-1H-cyclopenta[a]phenanthren-17-yl)furan-2(5H)-one] |  | 5 |
| CC1CN(C(C)C)CCC(O[C@@H]2[C@H](C)O[C@@H](O[C@@H]3[C@H](C)O[C@@H](O[C@H]4CC[C@@]5(C)C(CCC6C5C[C@H](O)[C@]5(C)[C@@H](C7=CC(=O)OC7)CC[C@]65O)C4)C[C@@H]3O)C[C@@H]2O)O1 (stereo partly drawn) [DiP] | 5.1 |  |
